# Test results from ChEMBL document CHEMBL6177976, “Important Role of Triphenylamine in Modulating the Antibacterial Performance Relationships of Antimicrobial Peptide Mimics by Alkyl Chain Engineering” (J Med Chem, 2025).
# Active and inactive are the calls of the source. No cut-off for these calls is given here.
# Key:
# [1] = system: Escherichia coli; experiment: Antibacterial activity against Escherichia coli incubated for 90 mins; format: functional, organism-based
# [2] = system: HeLa; experiment: Cytotoxicity against human HeLa cells at 32 uM incubated for 24 hrs by CCK-8 assay; format: functional, cell-based
# [3] = system: Staphylococcus aureus; experiment: Antibacterial activity against Staphylococcus aureus incubated for 90 mins; format: functional, organism-based; details: dose 10.0 µM
# [4] = system: Staphylococcus aureus; experiment: Antibacterial activity against methicillin resistant Staphylococcus aureus assessed as bacterial viability at 10 uM incubated for 90 mins relative to control; format: functional; details: 1.5 h
# [5] = system: Staphylococcus aureus; experiment: Antibacterial activity against methicillin resistant Staphylococcus aureus assessed as bacterial viability up to 12 uM; format: functional, organism-based
# [6] = system: Cell membrane; experiment: Induction of Inner membrane integrity in Staphylococcus aureus at 128 uM measured for 40 mins T12 dye based analysis; format: subcellular
# [7] = system: Cell membrane; experiment: Induction of Inner membrane integrity in Staphylococcus aureus at 128 uM measured for 40 mins in presence of phosphatidylglycerol by T12 dye based analysis; format: subcellular
# [8] = system: Cell membrane; experiment: Induction of cell membrane damage in Staphylococcus aureus assessed as increase in fluorescence intensity at 128 uM measured for 40 mins propidium iodide staining based analysis
# [9] = system: Cell membrane; experiment: Induction of Inner membrane integrity in Staphylococcus aureus at 128 uM measured for 40 mins in presence of cardiolipin by T12 dye based analysis
# [10] = system: Staphylococcus aureus; experiment: Antibacterial activity against methicillin resistant Staphylococcus aureus assessed as bacterial viability at 4 uM incubated for 90 mins relative to control; format: functional; details: 1.5 h
# [11] = system: Cell membrane; experiment: Induction of cytoplasmic membrane permeabilization in Staphylococcus aureus assessed as increase in fluorescence intensity at 16 uM incubated for […] by CLSM analysis
# [12] = system: Staphylococcus aureus; experiment: Drug resistance, ratio of MIC for Staphylococcus aureus after 20 passages to MIC for Staphylococcus aureus after initial exposure; format: functional
# [13] = system: Staphylococcus aureus; experiment: Bactericidal activity against Staphylococcus aureus assessed as bacterial viability at 4 uM by plate counting method relative to control; format: functional
# [14] = Hemolytic activity in sheep red blood cells assessed as hemolysis; format: toxicity, cell-based, Ovis aries, Erythrocyte
# [15] = system: RAW264.7; experiment: Cytotoxicity against mouse RAW264.7 cells at 32 uM incubated for 24 hrs by CCK-8 assay; format: toxicity, cell-based; details: raw264.7, 24 h
# [16] = system: Staphylococcus aureus; experiment: Antibiofilm activity in Staphylococcus aureus assessed as inhibition of biofilm formation incubated for 48 hrs by SYTO 9 staining based CLSM analysis; format: functional, organism-based
# [17] = system: Staphylococcus aureus; experiment: Antibacterial activity against Staphylococcus aureus assessed as change in surface zeta potential at 16 uM incubated for 20 mins; format: functional, organism-based
# [18] = system: Staphylococcus aureus; experiment: Antibacterial activity against methicillin resistant Staphylococcus aureus infected in Kunming mouse model of skin wound infection assessed as effect on wound healing rate at 5 mg/kg administered for 7 days; format: functional, organism-based; details: time 7.0 day
# [19] = system: Staphylococcus aureus; experiment: Bactericidal activity against Staphylococcus aureus assessed as bacterial viability at 4 uM pretreated with compound for 60 mins followed by white light irradiation for 30 mins by plate counting method; format: functional; details: time 90 min, 1.5 h
# [20] = system: Staphylococcus aureus; experiment: Induction of ROS accumulation in Staphylococcus aureus assessed as fold increase in fluorescence intensity at 1 uM by DCFH-DA staining based analysis; format: functional
# [21] = system: Cell membrane; experiment: Induction of cell membrane damage in Staphylococcus aureus at 20 uM incubated for 60 mins by SEM analysis; format: subcellular
# [22] = system: Cell membrane; experiment: Induction of cell membrane damage in Staphylococcus aureus at 20 uM incubated for 60 mins by TEM analysis; format: subcellular
# [23] = system: Staphylococcus aureus; experiment: Antibiofilm activity in Staphylococcus aureus assessed as inhibition of biofilm formation incubated for 48 hrs in presence of white light irradiation; format: functional, organism-based; details: dose <= 32.0 µM
# [24] = system: Staphylococcus aureus; experiment: Antipersister-activity against Staphylococcus aureus assessed as reduction in bacterial colony count preincubated with 100 times of MIC of rifampicin for 24 hrs followed by compound addition and measured after 8 hrs by drop plate counting method; format: functional, organism-based
# [25] = system: Staphylococcus aureus; experiment: Induction of ROS accumulation in Staphylococcus aureus assessed as increase in singlet oxygen level by measuring reduction in ABDA absorption peak at 10 uM irradiated with 650 nm 50 mW/cm2 light for 5 mins; format: functional, organism-based
# [26] = system: Cell membrane; experiment: Induction of cytoplasmic membrane permeabilization in Staphylococcus aureus assessed as increase in fluorescence intensity at 16 uM incubated for […] by SYTO 9 staining based analysis
# [27] = system: Escherichia coli; experiment: Antibacterial activity against Escherichia coli assessed as change in surface zeta potential at 16 uM incubated for 20 mins; format: functional, organism-based
# [28] = system: Staphylococcus aureus; experiment: Bactericidal activity against methicillin-resistant Staphylococcus aureus assessed as bacterial viability at 4 uM pretreated with compound for 60 mins followed by white light irradiation for 30 mins by plate counting method; format: functional; details: time 90 min, 1.5 h
# [29] = system: Staphylococcus aureus; experiment: Antibacterial activity against Staphylococcus aureus at 0.5 times MIC measured after 20 passages; format: functional, organism-based
# [30] = system: Staphylococcus aureus; experiment: Antibacterial activity against methicillin resistant Staphylococcus aureus infected in Kunming mouse model of skin wound infection assessed as effect on wound healing rate at 5 mg/kg administered for 7 days in presence of white light irradiation; format: functional, organism-based; details: time 7.0 day
# [31] = system: Cell membrane; experiment: Induction of Inner membrane integrity in Staphylococcus aureus measured for 40 mins in presence of phosphatidylglycerol by T12 dye based analysis; format: subcellular; details: dose 128.0 µM
# [32] = system: Cell membrane; experiment: Induction of Inner membrane integrity in Staphylococcus aureus measured for 40 mins in presence of cardiolipin by T12 dye based analysis; format: subcellular; details: dose 128.0 µM
# [33] = system: Staphylococcus aureus; experiment: Bactericidal activity against Staphylococcus aureus assessed as reduction in bacterial colony count measured at 2 hrs; format: functional, organism-based
# [34] = system: Staphylococcus aureus; experiment: Antibacterial activity against Staphylococcus aureus assessed as increase in fluorescence intensity incubated for 20 mins; format: functional, organism-based
# [35] = system: Staphylococcus aureus; experiment: Antibiofilm activity in Staphylococcus aureus assessed as inhibition of biofilm formation at 8 uM incubated for 48 hrs; format: functional, organism-based
# [36] = system: Escherichia coli; experiment: Antibacterial activity against Escherichia coli assessed as effect on bacterial growth incubated for 90 mins; format: functional, organism-based
# [37] = system: Staphylococcus aureus; experiment: Induction of ROS accumulation in Staphylococcus aureus assessed as increase in singlet oxygen level by measuring reduction in HPF absorption peak at 10 uM irradiated with 650 nm 50 mW/cm2 light for 5 mins; format: functional, organism-based
# [38] = system: Staphylococcus aureus; experiment: Antibiofilm activity in Staphylococcus aureus assessed as inhibition of biofilm formation at 32 uM incubated for 48 hrs in presence of white light irradiation; format: functional; details: light or radiation study
# [39] = system: Staphylococcus aureus; experiment: Antibiofilm activity in Staphylococcus aureus assessed as inhibition of biofilm formation incubated for 48 hrs in presence of white light irradiation by SYTO 9 staining based CLSM analysis; format: functional, organism-based
# [40] = system: HeLa; experiment: Cytotoxicity against human HeLa cells at 32 uM measured after 60 mins by Calcein AM assay; format: functional, cell-based
# [41] = system: HeLa; experiment: Cytotoxicity against human HeLa cells at 32 uM incubated for 24 hrs by Calcein AM assay; format: functional, cell-based
# [42] = system: HeLa; experiment: Cytotoxicity against human HeLa cells assessed as dead cells at 32 uM measured after 24 hrs by PI staining based analysis; format: functional, cell-based
# [43] = system: Cell membrane; experiment: Induction of cell membrane damage in Staphylococcus aureus assessed as decrease in fluorescence intensity at 128 uM measured for 40 mins propidium iodide staining based analysis; format: subcellular
smiles,measurement,setting,value
CCCC[N+](C)(C)CCCOc1ccc(/C=C/c2ccccc2)cc1.[Br-],Activity,[1],Active
same,Activity,[2],Active
same,Activity,[3],Active
same,Activity,[4],55%
same,Activity,[5],Active
same,Activity,[6],Active
same,Activity,[7],inactive
same,Activity,[8],Active
same,Activity,[9],inactive
C[N+](C)(C)CCCOc1ccc(/C=C/c2ccc(N(c3ccccc3)c3ccccc3)cc2)cc1.[Br-],Activity,[1],Active
same,Activity,[10],3%
same,Activity,[11],Active
same,Ratio,[12],64
same,Activity,[13],11%
same,Activity,[2],Active
same,Activity,[3],Active
same,HC50,[14],> 900 µM
same,Activity,[15],Non-toxic
same,Activity,[16],Active
same,Activity,[17],Active
same,Activity,[18],Active
same,Activity,[19],0.5%
same,fold change (FC),[20],100
same,Activity,[21],Active
same,Activity,[5],Active
same,Activity,[22],Active
same,Activity,[23],Dose-dependent-effect
same,Activity,[24],Active
same,Activity,[6],Active
same,Activity,[25],inactive
same,Activity,[26],Active
same,Activity,[27],Active
same,Activity,[28],~100%
same,Activity,[29],Active
same,Activity,[30],Active
same,Activity,[31],Dose-dependent-effect
same,Activity,[32],Dose-dependent-effect
same,Activity,[33],Active
same,Activity,[34],Active
same,Activity,[35],Active
same,Activity,[36],inactive
same,Activity,[37],Active
same,inhibition at 32 µM,[38],100%
same,Activity,[39],Active
CCCCCCCC[N+](C)(C)CCCOc1ccc(/C=C/c2ccc(N(c3ccccc3)c3ccccc3)cc2)cc1.[Br-],Activity,[1],Active
same,Activity,[10],28%
same,Activity,[3],Active
same,HC50,[14],75 µM
same,Activity,[40],inactive
same,Activity,[41],inactive
same,Activity,[5],Active
same,Activity,[6],Active
same,Activity,[7],inactive
same,Activity,[42],Active
same,Activity,[27],Active
same,Activity,[43],Active
same,Activity,[9],inactive
same,Activity,[36],inactive
CCCCCCCC[N+](C)(C)CCCOc1ccc(/C=C/c2ccccc2)cc1.[Br-],Activity,[1],Active
same,Activity,[3],Active
same,Activity,[40],inactive
same,Activity,[4],4%
same,Activity,[41],inactive
same,Activity,[21],Active
same,Activity,[5],Active
same,Activity,[6],Active
same,Activity,[42],Active
same,Activity,[31],Dose-dependent-effect
same,Activity,[8],Active
same,Activity,[32],Dose-dependent-effect
CCCCCCCCCC[N+](C)(C)CCCOc1ccc(/C=C/c2ccc(N(c3ccccc3)c3ccccc3)cc2)cc1.[Br-],Activity,[1],Active
same,Activity,[10],52%
same,Activity,[3],Active
same,Activity,[5],Active
same,Activity,[6],Active
same,Activity,[7],inactive
same,Activity,[27],Active
same,Activity,[43],Active
same,Activity,[9],inactive
same,Activity,[36],inactive
CCCC[N+](C)(C)CCCOc1ccc(/C=C/c2ccc(N(c3ccccc3)c3ccccc3)cc2)cc1.[Br-],Activity,[1],Active
same,Activity,[10],2%
same,Activity,[11],Active
same,Activity,[2],Active
same,Activity,[3],Active
same,Activity,[17],Active
same,Activity,[21],Active
same,Activity,[5],Active
same,Activity,[6],Active
same,Activity,[26],Active
same,Activity,[27],Active
same,Activity,[31],Dose-dependent-effect
same,Activity,[32],Dose-dependent-effect
same,Activity,[36],inactive
C[N+](C)(C)CCCOc1ccc(/C=C/c2ccccc2)cc1.[Br-],Activity,[1],Active
same,Activity,[2],Active
same,Activity,[3],Active
same,Activity,[4],60%
same,Activity,[5],Active
same,Activity,[6],Active
same,Activity,[7],inactive
same,Activity,[8],Active
same,Activity,[9],inactive
CCCCCCCCCC[N+](C)(C)CCCOc1ccc(/C=C/c2ccccc2)cc1.[Br-],Activity,[1],Active
same,Activity,[3],Active
same,Activity,[4],0.1%
same,Activity,[21],Active
same,Activity,[5],Active
same,Activity,[6],Active
same,Activity,[31],Dose-dependent-effect
same,Activity,[8],Active
same,Activity,[32],Dose-dependent-effect
